Consider 6 compounds from publication PMC10321319 (Nature, 2022).

The test system of one data set is E. faecium Com15. Put plainly: MIC, microbial susceptibility assay. The data set is classed as cell-based. Particulars: n=2.
The test system of another data set is S. aureus SH1000. Put plainly: MIC, microbial susceptibility assay. It counts as cell-based. Particulars: n=2.
Data set [1] concerns A. baumannii ATCC17978. Description: MIC, microbial susceptibility assay. It counts as cell-based, Acinetobacter baumannii. The conditions noted are these: n=2.
A further data set relates to P. aeruginosa PA01. Description: MIC, microbial susceptibility assay. The data set is classed as cell-based, Pseudomonas aeruginosa. The conditions noted are these: n=2.
A further data set relates to E. cloacae 0150. Description: MIC, microbial susceptibility assay. The data set is classed as cell-based, Enterobacter cloacae. The conditions noted are these: n=2.
Data set [2] deals with S. typhimurium 0635 (mcr-1). Put plainly: MIC, microbial susceptibility assay. The data set is classed as cell-based. The conditions noted are these: S. typhimurium 0635, mcr-1 clinical isolate; n=2.
The subject of data set [3] is A. baumannii ATCC17978 (pMQ124xlab1-mcr-1). Put plainly: MIC, microbial susceptibility assay. The data set is classed as cell-based, Acinetobacter baumannii. The conditions noted are these: n=2.
The test system of data set [4] is A. baumannii SM1536 (pMQ124xlab1-mcr-1). Description: MIC, microbial susceptibility assay. It counts as cell-based, Acinetobacter baumannii. Particulars: for MIC: A. baumannii SM1536 (pMQ124xlab1-mcr-1), n=2; for Fold increase in MIC: A. baumannii SM1536 upon introduction of mcr-1.
In data set [5] the test system is pairs of colistin sensitive and resistant strains of K. pneumoniae and A. baumannii (mcr-1 plasmid). The data set is classed as cell-based.
The subject of a further data set is K. pneumoniae 10031. Particulars: n=2.
Data set [6] concerns K. pneumoniae 0497 (mcr-1). The conditions noted are these: n=2.
The next data set has as its system K. pneumoniae ATCC13883. Particulars: n=2.
Data set [7] deals with K. pneumoniae ATCC13883 (pMQ124-mcr-1). The conditions noted are these: for Fold increase in MIC: K. pneumoniae 13883 upon introduction of mcr-1; for MIC: n=2.
Data set [8] deals with E. cloacae ATCC13047 (ΔphoP/Q). Particulars: n=2.
For data set [9], the system named is E. cloacae ATCC13047 (ΔphoP/Q+phoP/Q). The conditions noted are these: for MIC: n=2; for Fold increase in MIC: E. cloacae ATCC13047 upon introduction of phoP/Q; for susceptibility of strain: E. cloacae phoP/Q deletion rescued with phoP/Q plasmid.
Another data set relates to P. vulgaris 49132. The conditions noted are these: Proteus vulgaris, intrinsically colistin resistant (L-Ara4N).
Data set [10] has as its system A. baumannii ATCC17978. Put plainly: CHIR-090 inhibition assay, growth curves. It counts as cell-based, Acinetobacter baumannii.
Data set [11] deals with A. baumannii 0301 (mcr-1). Put plainly: MIC, microbial susceptibility assay. The data set is classed as cell-based, Acinetobacter baumannii. The conditions noted are these: for Fold increase in MIC: A. baumannii 0301 upon introduction of mcr-1.
A further data set relates to A. baumannii 0287. Description: MIC, microbial susceptibility assay. Particulars: XDR A. baumannii 0287, mcr-1 −. The data set is classed as cell-based, Acinetobacter baumannii.
The subject of data set [12] is A. baumannii 0287 (mcr-1 +). Put plainly: MIC, microbial susceptibility assay. It counts as cell-based, Acinetobacter baumannii. Particulars: XDR A. baumannii 0287, mcr-1 +.
A further data set concerns A. baumannii 0295. Description: MIC, microbial susceptibility assay. It counts as cell-based, Acinetobacter baumannii. Particulars: XDR A. baumannii 0295, mcr-1 −.
For data set [13], the system named is A. baumannii 0295 (mcr-1 +). Description: MIC, microbial susceptibility assay. It counts as cell-based, Acinetobacter baumannii. The conditions noted are these: XDR A. baumannii 0295, mcr-1 +.
In a further data set the test system is A. baumannii 0286. Put plainly: MIC, microbial susceptibility assay. It counts as cell-based, Acinetobacter baumannii. The conditions noted are these: XDR A. baumannii 0286, mcr-1 −.
For a further data set, the system named is A. baumannii 0282. Description: MIC, microbial susceptibility assay. The conditions noted are these: XDR A. baumannii 0282, mcr-1 −. The data set is classed as cell-based, Acinetobacter baumannii.
For a further data set, the system named is A. baumannii 0296. Description: MIC, microbial susceptibility assay. The conditions noted are these: XDR A. baumannii 0296, mcr-1 −. The data set is classed as cell-based, Acinetobacter baumannii.
The subject of the next data set is HT29 cells. Description: MTT cytotoxicity assay. It counts as cell-based, human. Particulars: 48 h incubation.
Data set [14] has as its system A. baumannii-SM1536-mcr-1. Put plainly: Neutropenic thigh infection model. The data set is classed as in vivo, Acinetobacter baumannii. The conditions noted are these: neutropenic mice, 20 mg/kg subcutaneous, 24 h.
The next data set relates to A. baumannii-0301-mcr-1. Put plainly: Neutropenic thigh infection model. It counts as in vivo, Acinetobacter baumannii. The conditions noted are these: neutropenic mice, 20 mg/kg subcutaneous, 24 h.
Data set [15] is described as follows: Pharmacokinetics assessment, plasma. The data set is classed as in vivo. The conditions noted are these: mice, single subcutaneous dose 10 mg/kg.
The test system of the next data set is A. baumannii 0301. The conditions noted are these: lipid analog table.
A further data set has as its system N. meningitidis 13090. The conditions noted are these: eptA intrinsic resistance.
The subject of the next data set is M. osloensis 10973. The conditions noted are these: eptA intrinsic resistance.
Setting [16] is: A. baumannii 17978, ESKAPE panel.
Where [17] appears, read: A. baumannii ATCC17978, mcr-1 engineered pairs.
[18] abbreviates: K. pneumoniae 0497, mcr-1 clinical isolate.
[19] abbreviates: K. pneumoniae ATCC13883 (pMQ124-mcr-1).
Where [20] appears, read: E. cloacae ATCC13047 (ΔphoP/Q+phoP/Q).

Values after ≈ are worked out from the molar mass of the structure shown. Where two headings read alike, the source gives them in different places. Positions of bridges follow the written chain, without caps; N, C: chain ends. Non-standard residues stand in square brackets, D forms with d. Residues, ends and D or L forms follow the SMILES beside them. *: point of attachment. X1 = CC[C@H](C)CCCCC(=O)*; dDab = NCC[C@@H](N)C(=O)O; Octanoyl = CCCCCCCC(=O)*; Dab = NCC[C@H](N)C(=O)O A value given as a limit tells only on which side of the number the result lay.

Take Polymyxin B: the MIC in the data set with E. faecium Com15 is above 128 µg/mL; with S. aureus SH1000, above 128 µg/mL; against A. baumannii ATCC17978 [1] (setting [16]), 0.5 µg/mL; in the data set with A. baumannii ATCC17978 [1] (setting [17]), 0.5 µg/mL; with P. aeruginosa PA01 it was 2 µg/mL; against E. cloacae 0150, 1 µg/mL. For the same compound, the MIC in data set [2] was 16 µg/mL; in [3], 16 µg/mL; in data set [4], 128 µg/mL; in the data set on K. pneumoniae 10031, 1 µg/mL; in [6] (setting [18]), 32 µg/mL; in the data set with K. pneumoniae ATCC13883, 1 µg/mL. The MIC in data set [7] (setting [19]) is 128 µg/mL; against A. baumannii SM1536 (n=2), 1 µg/mL; in data set [8] (E. cloacae ATCC13047 (ΔphoP/Q)), 1 µg/mL; in [9] (setting [20]) it was 32 µg/mL; in the data set on P. vulgaris 49132, above 128 µg/mL. Besides, the “increase in MIC upon mcr-1 expression” value in data set [5] is at least 32 fold. Besides, the “Fold increase in MIC” value in [7] came to 128; in data set [9], 32. For the same compound, the “susceptibility of strain” value in data set [9] is “resistant”.
As for `C[C@@H](O)[C@H](NC(=O)c1ccc(C#Cc2ccc(CN3CCOCC3)cc2)cc1)C(=O)NO` [CHIR-090], the “A. baumannii growth with CHIR-090 alone” value in the data set with A. baumannii ATCC17978 [10] (48 h growth curve) is recorded as “does not inhibit A. baumannii growth”.
Consider `CC[C@H](C)CCCCC(=O)N[C@@H](CCN)C(=O)N[C@H](C(=O)N[C@H](CCN)C(=O)N[C@H]1CCNC(=O)[C@H](CC(C)C)NC(=O)[C@H](CCN)NC(=O)[C@H](CCN)NC(=O)[C@H]([C@@H](C)CC)NC(=O)[C@@H](CC(C)C)NC(=O)[C@H](CCN)NC1=O)[C@@H](C)O` [Macolacin-3Dab] (X1-[Dab]T[dDab][Dab][Dab][dL]I[Dab][Dab]L; lactam 4-C), for which the results for the “Fold increase in MIC” value in [7] and in data set [9] were 8 and 4, respectively.
As to `CC[C@H](C)CCCCC(=O)N[C@@H](CCN)C(=O)N[C@H](C(=O)N[C@H](CO)C(=O)N[C@H]1CCNC(=O)[C@H]([C@@H](C)O)NC(=O)[C@H](CCN)NC(=O)[C@H](CCN)NC(=O)[C@H]([C@@H](C)CC)NC(=O)[C@@H](CC(C)C)NC(=O)[C@H](CCN)NC1=O)[C@@H](C)O` [Macolacin-10Thr] (X1-[Dab]T[dS][Dab][Dab][dL]I[Dab][Dab]T; lactam 4-C), the MIC in data set [6] (K. pneumoniae 0497 (mcr-1), SAR table) came out at 8 µg/mL (≈ 6.92 µM); in [7] (K. pneumoniae 13883 (mcr-1), SAR table), 64 µg/mL (≈ 55.3 µM); in [8] (E. cloacae ATCC13047 (Δ phoP/Q), SAR table), 1 µg/mL (≈ 0.865 µM); in data set [9] (E. cloacae ATCC13047 (Δ phoP/Q+phoP/Q), SAR table), 16 µg/mL (≈ 13.8 µM). In addition, the results for the “Fold increase in MIC” value in data set [7] and in data set [9] were 64 and 16, respectively.
For the compound colistin, the MIC is above 128 µg/mL against E. faecium Com15; above 128 µg/mL with S. aureus SH1000; 1 µg/mL in the data set on A. baumannii ATCC17978 [1] (setting [16]); 1 µg/mL with A. baumannii ATCC17978 [1] (setting [17]); 1 µg/mL against P. aeruginosa PA01; 1 µg/mL with E. cloacae 0150. Moreover, the minimum inhibitory concentration (MIC) in data set [2] is 16 µg/mL; in data set [3], 32 µg/mL; in data set [4], 128 µg/mL; in data set [11] (A. baumannii 0301 (mcr-1), lipid analog table), above 128 µg/mL; in data set [11] (A. baumannii-0301 transformed with mcr-1 (PDR strain)) it was above 64 µg/mL; in the data set on A. baumannii 0287, 0.5 µg/mL. Moreover, the MIC was 64 µg/mL in [12]; 0.25 µg/mL against A. baumannii 0295; above 128 µg/mL in [13]; 1 µg/mL in the data set with A. baumannii 0286; 0.5 µg/mL with A. baumannii 0282; 0.25 µg/mL against A. baumannii 0296. The MIC in the data set with K. pneumoniae 10031 is 0.5 µg/mL; in [6] (setting [18]), 32 µg/mL; with K. pneumoniae ATCC13883, 1 µg/mL; in data set [7] (setting [19]), 64 µg/mL; with A. baumannii SM1536 (lipid analog table), 0.5 µg/mL; against A. baumannii SM1536 (n=2), 0.5 µg/mL. Moreover, the MIC in data set [8] (E. cloacae ATCC13047 (ΔphoP/Q)) was 1 µg/mL; in data set [9] (setting [20]), 32 µg/mL; with A. baumannii 0301 it was 0.25 µg/mL; in the data set on N. gonorrhoeae 49226 it was above 128 µg/mL; against N. meningitidis 13090 it was 128 µg/mL; in the data set with M. osloensis 10973, 8 µg/mL. The same compound yielded an MIC in the data set on P. vulgaris 49132 above 128 µg/mL. For the same compound, the “Fold increase in MIC” value in [4] is reported as 256; in [11], above 512; in data set [7], 64; in data set [9], 32. In data set [5], the “increase in MIC upon mcr-1 expression” value is given as at least 32 fold. Also, the “cytotoxicity to human cells, IC50” value in the data set with HT29 cells was above 512 µg/mL. Also, the “bacterial burden in thigh relative to initial infection” value (in data set [14]; in the data set on A. baumannii-0301-mcr-1) was “did not reduce the bacterial burden below the level of the initial infection” each time. Also, the “plasma drug exposure (pharmacokinetic profile)” value in [15] is given as “parity in plasma drug exposure”. The “A. baumannii growth with antibiotic plus CHIR-090” value with A. baumannii ATCC17978 [10] (antibiotic at 10x MIC with LpxC inhibitor CHIR-090, 48 h) is listed as “rescued A. baumannii growth”. For the same compound, the “A. baumannii growth with antibiotic alone” value in the data set with A. baumannii ATCC17978 [10] (concentrations above MIC (10x MIC), 48 h) is “completely abrogated A. baumannii growth”. Besides, the “susceptibility of strain” value in [9] is “resistant”.
For `CCCCCCCC(=O)N[C@@H](CCN)C(=O)N[C@H](C(=O)N[C@H](CO)C(=O)N[C@H]1CCNC(=O)[C@H](CC(C)C)NC(=O)[C@H](CCN)NC(=O)[C@H](CCN)NC(=O)[C@H]([C@@H](C)CC)NC(=O)[C@@H](CC(C)C)NC(=O)[C@H](CCN)NC1=O)[C@@H](C)O` [L2] (Octanoyl-[Dab]T[dS][Dab][Dab][dL]I[Dab][Dab]L; lactam 4-C; N-terminus assumed), the “Fold increase in MIC” value in [4] is on record as 8; in data set [11], 2.
